Source: patent US20210102215A1, “TREATMENT AND PREVENTION OF VIRAL INFECTION” (priority 2016, published 2021)
d = 2'-deoxy (DNA); r = 2'-OH (RNA)

Key:
Bna1 promoter = settings: cited from earlier work
HCVpp = assay type: cell-based, hepatitis C virus; settings: cells treated with Rev-erbα agonists (FIG. 3c, 3d)
HIV virus (NL4.3) = test: HIV (NL4.3) infection of TZM-bl cells, HIV promoter luciferase assay; settings: for HIV infection (HIV promoter activity): increasing dose, 24 h (FIGS. 11a, 11b)
Bmal1 mRNA = Bmal1 mRNA levels by qPCR in hepatocytes / Huh-7 cells; settings: qPCR (FIG. 3a)
[1] = tested on: HCV genotype 3a S52 replicon; settings: REV-ERB agonists 20 μM with increasing DAA, 48 h (FIGS. 10f, 10g)
[2] = tested on: HCV sub-genomic replicons genotypes 1b, 2a, 3a; test: HCV sub-genomic luciferase replicons genotypes 1-3 in Huh-7.5-SEC14L2 cells; settings: genotypes 1-3 replicons, increasing concentrations, 24 h (FIGS. 10c-e)
HCV sub-genomic replicon = test: HCV genome replication in a synthetic sub-genomic replicon line; settings: dose-dependent (FIG. 4a)
HCV infected Huh-7 cells = test: Viral RNA load in chronic HCV infected cells by qPCR; assay type: cell-based, hepatitis C virus; settings: increasing dose, 24 hours, qPCR (FIG. 5a)
Procedure: To assess the ability of REV-ERB activators to limit HCV RNA replication, HCV infected Huh-7 cells (verified by NSSA staining) were treated with GSK4112 or SR9009 at a range of doses. […], HCV infection levels were quantified by reverse transcriptase polymerase chain measurement of viral RNA (see FIG. 4b).
Huh-7 cells were treated with either REV-ERBα agonist GSK4112 or SR9009 for 16 hour at a range of doses. Medium containing the drug was then removed following viral inoculation and infectivity assessed 24 hours later. To evaluate the efficacy of these drugs in viral replication, chronic infected HCV or HBV cells were treated with REV-ERBα activators at a range of concentrations and viral load determined by real-time qPCR 24 hours later.
(§1) The ability of REV-ERBα activators to reduce viral burden of chronic HCV infected cells was then tested. […] An identical assay was performed in two chronic HBV infected cell lines—2215 and AD38.
HCVcc SA13/JFH-1 infected Huh-7 cells were also treated with increasing concentrations of GSK2667 for 24 h and viral RNA levels measured after 24 h.

Zika virus = settings: Huh-7, infectivity after 24 h and 48 h (FIG. 12)
[3] = tested on: chronic HBV infected cell lines 2215 and AD38; test: HBV RNA levels in chronic HBV infected cell lines; assay type: cell-based, hepatitis B virus; settings: 2215 and AD38 cells, 48 hours (FIG. 5c)
Procedure: Huh-7 cells were treated with either REV-ERBα agonist GSK4112 or SR9009 for 16 hour at a range of doses. Medium containing the drug was then removed following viral inoculation and infectivity assessed 24 hours later.
as §1

[4] = tested on: pseudoparticles expressing viral glycoproteins (HCV, VSV, Lassa, Flu, MLC, Ebola); assay type: cell-based

Molecule | Effect on the anti-viral activity (HCV entry) of REV-ERBα agonists GSK4112/SR9009 (HCVpp) | HIV infection (HIV promoter activity) (HIV virus (NL4.3)) | Bmal1 mRNA levels (Bmal1 mRNA) | Combined effect of REV-ERB agonist and DAA on HCV genotype 3 replication [1] | Replication of the HCV genome (HCV sub-genomic replicon) | Viral load (HCV genomic RNA) (HCV infected Huh-7 cells) | also measured
CS(=O)(=O)N(Cc1ccco1)CC(O)Cn1c2ccccc2c2ccccc21 (stereo not shown) [KL001] |  |  |  |  |  |  | Bmal1 promoter activity (Bna1 promoter): inhibit Bna1 promoter activity
CCOC(=O)C1Cc2ccccc2CN1C(=O)c1ccc(SC)s1 (stereo not shown) [SR8278] | rescued | promotes HIV infection |  |  |  |  | 
CCOC(=O)N1CCC(CN(Cc2ccc(Cl)cc2)Cc2ccc([N+](=O)[O-])s2)C1 (stereo not shown) [SR9009] |  | inhibit HIV infection | decreased Bmal1 mRNA levels | additive effects | inhibited | dose-dependent reduction in viral load | Antiviral activity against HCV RNA replication across genotypes [2]: pan-genomic; Zika infection (Zika virus): inhibit Zika infection; HBV RNA levels [3]: significantly reduced HBV RNA levels
CC(C)(C)OC(=O)CN(Cc1ccc(Cl)cc1)Cc1ccc([N+](=O)[O-])s1 [GSK4112] |  | inhibit HIV infection | decreased Bmal1 mRNA levels |  | inhibited | dose-dependent reduction in viral load | Entry of pseudoparticles of multiple viruses [4]: inhibitory effect on entry was replicated across multiple viruses including lassa and ebola
CC(C)OC(=O)[C@H](C)N[P@](=O)(OC[C@H]1O[C@@H](n2ccc(=O)[nH]c2=O)[C@](C)(F)[C@@H]1O)Oc1ccccc1 [Sofosbuvir] |  |  |  | additive effects |  |  | 
Rev-erbα siRNA: rev-erba siRNA duplex from Life technologies, SEQ ID NO 5 and 6, two-base DNA overhang (chain 1 GGUGUCUGAAGAAUGAGAATT; chain 2 UUCUCAUUCUUCAGACACCTT; sugars from the 5' end r19 d2, backbone and methylation of C not given here) | rescued |  |  |  |  |  | HIV promoter activity after siRNA knockdown (HIV virus (NL4.3); 48 h post-siRNA, HIV 24 h (FIG. 11c)): increased HIV promoter activity
